From patent US8178506B2, “Oligomeric compounds and compositions for use in modulation of small non-coding RNAs” (Regulus Therapeutics Inc., priority 2003, dated 2012)
In the oligonucleotide strings, read from the 5' end, every base follows the letter of its sugar. An asterisk marks phosphorothioate; unmarked linkages are phosphodiester. Other units and linkages are bracketed, terminal groups are in braces. A string of capitals states the bases alone. e = 2'-O-(2-methoxyethyl) (MOE); [5mC] = 5-methylcytosine

Columns and labels:
Assay type in all cases: cell-based, human
PEPCK-c = PEPCK-c mRNA expression in HepG2 cells; details: for PEPCKc mRNA: HepG2 cells, Experiment 1, basal (no insulin), four hours, UTC = 100; for PEPCKc mRNA expression: Experiment 2, insulin treated: HepG2 cells transfected with oligomeric compound, 1 nM insulin for four hours, UTC + 1 nM insulin = 100
aP2 = aP2 mRNA expression in adipocytes (real-time PCR); details: differentiating adipocytes transfected with oligomeric compound; Table 75
HSL = HSL mRNA expression in adipocytes (real-time PCR); details: differentiating adipocytes transfected with oligomeric compound; Table 75
Glut4 = Glut4 mRNA expression in adipocytes (real-time PCR); details: differentiating adipocytes transfected with oligomeric compound; Table 75
PPARγ = PPARγ mRNA expression in adipocytes (real-time PCR); details: differentiating adipocytes transfected with oligomeric compound; Table 75
IGFBP-1 = IGFBP-1 mRNA expression in HepG2 cells; details: for IGFBP1 mRNA: HepG2 cells, Experiment 1, basal (no insulin), four hours, UTC = 100; for IGFBP1 mRNA expression: Experiment 2, insulin treated: HepG2 cells transfected with oligomeric compound, 1 nM insulin for four hours, UTC + 1 nM insulin = 100

Row | Substance | reduction of PEPCK-c mRNA expression (PEPCK-c; HepG2, 1 nM insulin, 100 nM) | decrease in PEPCK-c mRNA (PEPCK-c; HepG2, basal (no insulin), 100 nM) | aP2 mRNA (aP2) | HSL mRNA (HSL) | GLUT4 mRNA (Glut4) | PPAR gamma mRNA (PPARγ) | PEPCKc mRNA (PEPCK-c) | IGFBP1 mRNA (IGFBP-1) | PEPCKc mRNA expression (PEPCK-c) | IGFBP1 mRNA expression (IGFBP-1)
1 | CTAGTGGTCCTAAACATTTCAC (chemistry not given here) [ISIS 327878, uniform 2′-MOE PS; targets mir-203] | 71% | 55% |  |  |  |  |  |  |  | 
2 | 327873 (antisense e[5mC]*eT*eA*e[5mC]*e[5mC]*eA*eT*eA*eG*eG*eG*eT*eA*eA*eA*eA*e[5mC]*e[5mC]*eA*e[5mC]*eT) [compound 327873] |  |  | 113 percentage of untreated control (UTC) | 116 percentage of untreated control (UTC) | 106 percentage of untreated control (UTC) | 104 percentage of untreated control (UTC) | 72 | 108 |  | 
3 | 327940 (antisense eG*eA*eA*e[5mC]*eA*eG*eG*eT*eA*eG*eT*e[5mC]*eT*eG*eA*eA*e[5mC]*eA*e[5mC]*eT*eG*eG*eG) [compound 327940] |  |  | 62 percentage of untreated control (UTC) | 67 percentage of untreated control (UTC) | 43 percentage of untreated control (UTC) | 64 percentage of untreated control (UTC) |  |  |  | 
4 | 327950 (antisense eT*e[5mC]*eA*eG*eT*eT*eT*eT*eG*e[5mC]*eA*eT*eA*eG*eA*eT*eT*eT*eG*e[5mC]*eA*e[5mC]*eA) [compound 327950] |  |  | 95 percentage of untreated control (UTC) | 94 percentage of untreated control (UTC) | 104 percentage of untreated control (UTC) | 93 percentage of untreated control (UTC) | 65 | 109 | 82 | 124
5 | 327965 (antisense eA*eT*e[5mC]*eA*e[5mC]*eA*eT*eA*eG*eG*eA*eA*eT*eA*eA*eA*eA*eA*eG*e[5mC]*e[5mC]*eA*eT*eA) [compound 327965] |  |  | 67 percentage of untreated control (UTC) | 84 percentage of untreated control (UTC) | 88 percentage of untreated control (UTC) | 91 percentage of untreated control (UTC) | 63 | 106 | 64 | 105
6 | 327959 (antisense e[5mC]*eA*eG*e[5mC]*e[5mC]*eG*e[5mC]*eT*eG*eT*e[5mC]*eA*e[5mC]*eA*e[5mC]*eG*e[5mC]*eA*e[5mC]*eA*eG) [compound 327959] |  |  | 24 percentage of untreated control (UTC) | 11 percentage of untreated control (UTC) | 152 percentage of untreated control (UTC) | 65 percentage of untreated control (UTC) | 139 | 124 | 156 | 141
7 | 327958 (antisense e[5mC]*e[5mC]*eG*eG*e[5mC]*eT*eG*e[5mC]*eA*eA*e[5mC]*eA*e[5mC]*eA*eA*eG*eA*e[5mC]*eA*e[5mC]*eG*eA) [compound 327958] |  |  | 10 percentage of untreated control (UTC) | 5 percentage of untreated control (UTC) | 5 percentage of untreated control (UTC) | 55 percentage of untreated control (UTC) | 73 | 119 | 106 | 149
8 | 327936 (antisense eA*e[5mC]*eA*eG*e[5mC]*eT*eG*eG*eT*eT*eG*eA*eA*eG*eG*eG*eG*eA*e[5mC]*e[5mC]*eA*eA) [compound 327936] |  |  | 40 percentage of untreated control (UTC) | 40 percentage of untreated control (UTC) | 6 percentage of untreated control (UTC) | 47 percentage of untreated control (UTC) |  |  |  | 
9 | 327963 (antisense eA*eA*e[5mC]*e[5mC]*eT*eA*eT*e[5mC]*e[5mC]*eT*eG*eA*eA*eT*eT*eA*e[5mC]*eT*eT*eG*eA*eA) [compound 327963] |  |  | 75 percentage of untreated control (UTC) | 89 percentage of untreated control (UTC) | 91 percentage of untreated control (UTC) | 91 percentage of untreated control (UTC) | 92 | 108 | 94 | 111
10 | 327935 (antisense e[5mC]*eT*eA*e[5mC]*e[5mC]*eT*eG*e[5mC]*eA*e[5mC]*eT*eA*eT*eA*eA*eG*e[5mC]*eA*e[5mC]*eT*eT*eT*eA) [compound 327935] |  |  | 60 percentage of untreated control (UTC) | 61 percentage of untreated control (UTC) | 47 percentage of untreated control (UTC) | 67 percentage of untreated control (UTC) |  |  |  | 
11 | 327952 (antisense e[5mC]*eT*eA*e[5mC]*eG*e[5mC]*eG*eT*eA*eT*eT*e[5mC]*eT*eT*eA*eA*eG*e[5mC]*eA*eA*eT*eA) [compound 327952] |  |  | 56 percentage of untreated control (UTC) | 64 percentage of untreated control (UTC) | 61 percentage of untreated control (UTC) | 84 percentage of untreated control (UTC) | 70 | 123 | 85 | 103
12 | 327944 (antisense eA*eA*eA*eG*eT*eG*eT*e[5mC]*eA*eG*eA*eT*eA*e[5mC]*eG*eG*eT*eG*eT*eG*eG) [compound 327944] |  |  | 71 percentage of untreated control (UTC) | 55 percentage of untreated control (UTC) | 28 percentage of untreated control (UTC) | 64 percentage of untreated control (UTC) |  |  |  | 
13 | 327949 (antisense e[5mC]*eA*e[5mC]*eA*eA*eA*eT*eT*e[5mC]*eG*eG*eA*eT*e[5mC]*eT*eA*e[5mC]*eA*eG*eG*eG*eT*eA) [compound 327949] |  |  | 52 percentage of untreated control (UTC) | 49 percentage of untreated control (UTC) | 20 percentage of untreated control (UTC) | 54 percentage of untreated control (UTC) | 81 | 112 | 101 | 172
14 | 327971 (antisense eG*eG*eA*eA*eA*eT*e[5mC]*e[5mC]*e[5mC]*eT*eG*eG*e[5mC]*eA*eA*eT*eG*eT*eG*eA*eT) [compound 327971] |  |  | 49 percentage of untreated control (UTC) | 38 percentage of untreated control (UTC) | 60 percentage of untreated control (UTC) | 69 percentage of untreated control (UTC) |  |  |  | 
15 | 327961 (antisense eG*eG*eG*eG*eT*eA*eT*eT*eT*eG*eA*e[5mC]*eA*eA*eA*e[5mC]*eT*eG*eA*e[5mC]*eA) [compound 327961] |  |  | 91 percentage of untreated control (UTC) | 88 percentage of untreated control (UTC) | 101 percentage of untreated control (UTC) | 95 percentage of untreated control (UTC) | 98 | 150 | 126 | 160
16 | 327957 (antisense e[5mC]*eA*e[5mC]*eA*eA*eG*eT*eT*e[5mC]*eG*eG*eA*eT*e[5mC]*eT*eA*e[5mC]*eG*eG*eG*eT*eT) [compound 327957] |  |  | 23 percentage of untreated control (UTC) | 15 percentage of untreated control (UTC) | 11 percentage of untreated control (UTC) | 68 percentage of untreated control (UTC) | 59 | 143 | 88 | 184
17 | 327945 (antisense e[5mC]*eT*eG*eT*eT*e[5mC]*e[5mC]*eT*eG*e[5mC]*eT*eG*eA*eA*e[5mC]*eT*eG*eA*eG*e[5mC]*e[5mC]*eA) [compound 327945] |  |  | 43 percentage of untreated control (UTC) | 41 percentage of untreated control (UTC) | 26 percentage of untreated control (UTC) | 51 percentage of untreated control (UTC) |  |  |  | 
18 | 327964 (antisense e[5mC]*e[5mC]*eA*eA*eG*eT*eT*e[5mC]*eT*eG*eT*e[5mC]*eA*eT*eG*e[5mC]*eA*e[5mC]*eT*eG*eA) [compound 327964] |  |  | 96 percentage of untreated control (UTC) | 102 percentage of untreated control (UTC) | 114 percentage of untreated control (UTC) | 93 percentage of untreated control (UTC) | 74 | 100 | 122 | 121
19 | 327946 (antisense eA*eG*eG*e[5mC]*eG*eA*eA*eG*eG*eA*eT*eG*eA*e[5mC]*eA*eA*eA*eG*eG*eG*eA*eA) [compound 327946] |  |  | 73 percentage of untreated control (UTC) | 76 percentage of untreated control (UTC) | 68 percentage of untreated control (UTC) | 81 percentage of untreated control (UTC) | 90 | 108 | 99 | 138
